Experimental findings from US7678808B2, “5 HT receptor mediated neurogenesis” (BrainCells, Inc., priority 2006, dated 2010) are described below.

Data set [1] has as its system human neural stem cells (hNSCs). Description: Neuronal differentiation of human neural stem cells (TUJ-1 staining). It counts as cell-based. The settings on record: agent alone; hNSC; data as % of neuronal positive control, basal media subtracted. From the text:
Mitogen-free test media with a positive control was used for neuronal differentiation, and basal media without growth factors served as a negative control.
Mitogen-free test media with a positive control for neuronal differentiation was used, and basal media without growth factors served as a negative control.
(§1) Human neural stem cells (hNSCs) were isolated and grown in monolayer culture, plated, treated with varying concentrations of buspirone in the presence or absence of the melatonin agonist melatonin, and stained with TUJ-1 antibody for the detection of neuronal differentiation or GFAP antibody for the detection of astrocyte differentiation, as described above. Mitogen-free test media with a positive control for neuronal differentiation was used along with basal media without growth factors as a negative control.
Human neural stem cells (hNSCs) were isolated and grown in monolayer culture, plated, treated with varying concentrations of a 5-HT3 antagonist and stained with TUJ-1 antibody, as described above. Mitogen-free test media with a positive control for neuronal differentiation was used along with basal media without growth factors as a negative control.
Human neural stem cells (hNSCs) were isolated and grown in monolayer culture, plated, treated with varying concentrations of a 5-HT4 agonist and stained with TUJ-1 antibody, as described above. Mitogen-free test media with a positive control for neuronal differentiation was used along with basal media without growth factors as a negative control.
The presence of synergy was determined by use of a combination index (CI). […] The CI is a quantitative measure of the nature of drug interactions, comparing the EC50's of two compounds, when each is assayed alone, to the EC50 of each compound when assayed in combination. The combination index (CI) is equal to the following formula: […]
where C1 and C2 are the concentrations of a first and a second compound, respectively, resulting in 50% activity in neuronal differentiation when assayed in combination; and IC1 and IC2 are the concentrations of each compound resulting in 50% activity when assayed independently.

Data set [2] shares this test system. Description: Astrocyte differentiation of hNSCs (GFAP staining). The data set is classed as cell-based. The protocol:
Experiments were carried out as described in Example 1, except the positive control for astrocyte differentiation contained mitogen-free test media with a positive control, and cells were stained with GFAP antibody.
Experiments were carried out as described in Example 2, except the positive control for astrocyte differentiation contained mitogen-free test media with a different positive control.
as §1

Data set [3] concerns Male F344 rats. Kind of data set: Novel Object Recognition (NOR) cognition assay. The settings on record: buspirone 0.5 and 5.0 mg/kg i.p., 1x per day for 28 days. It counts as in vivo, rat. From the text: The apparatus consisted of an open field (45×45×50 cm high) made of polycarbonate. Triplicate copies were used of the objects to be discriminated. Care was taken to ensure that the pair of objects tested were made from the same material so that they could not be distinguished readily by olfactory cues although they had very different appearances.
Each test session consisted of two phases. In the initial familiarization phase, two identical objects (A1 and A2) were placed in the far corners of the box arena. A rat was then placed in the middle of the arena and allowed 15 minutes to explore both objects. Exploration of an object was defined as directing the nose to the object at a distance of less than 2 cm and/or touching it with the nose. After a delay of 48-hours the rat was re-introduced to the arena (“test phase”). The box now contained a third identical copy of the familiar object (A3) and a new object (B). These were placed in the same locations as the sample stimuli, whereby the position (left or right) of the novel object in the test phase was balanced between rats. For half the rats, object A was the sample and object B was the novel alternative. The test phase was 15 minutes in duration, with the first 30 seconds of object interaction used to determine preference scores. Any animal with less than 15 seconds of object exploration were excluded from analysis.

Data set [4] deals with Male F344 rats. Description: Novelty suppressed feeding (NSF) depression assay. It counts as in vivo, rat. The settings on record: 1x per day for 21 days. How it is done: Twenty-four hours prior to behavioral testing, all food is removed from the home cage. At the time of testing a single pellet is placed in the center of a novel arena. Animals are placed in the corner of the arena and latency to eat the pellet is recorded. […] Animals receive compound daily for 21 days and testing is performed on day 21. A decreased latency to eat the food pellet is indicative of both neurogenesis and antidepressant activity.
Twenty-four hours prior to behavioral testing, all food is removed from the home cage. At the time of testing a single pellet is placed in the center of a novel arena. Animals are placed in the corner of the arena and the latency (in time) to eat the pellet is recorded. […] Animals receive compound daily for 21 days and testing is performed on day 21. A decreased latency to eat the food pellet is indicative of both neurogenesis and antidepressant activity.

The test system of data set [5] is granule cell layer of the dentate gyrus. Kind of data set: In vivo neurogenesis (BrdU positive cell counts). On the set-up: species or system rat. The settings on record: 0.5 mg/kg buspirone, 3.0 mg/kg melatonin or both, i.p., 1x per day for 28 days. The protocol:
BrdU was administered once daily between days 9 and 14 (100 mg/kg/day, i.p., n=12 per dose group). […] Data are presented as percent change in BrdU positive cells per cubic mm dentate gyrus.

Data set [6] can be described thus: Rat body weight during chronic dosing. The settings on record: buspirone 0.5 and 5.0 mg/kg i.p., 1x per day for 28 days.

SMILES strings stand for the structures. “Also recorded” adds a separate entry of the source.

With `O=C1CC2(CCCC2)CC(=O)N1CCCCN1CCN(c2ncccn2)CC1` [buspirone], the EC50 (as a rule, the concentration needed to bring the measured effect to its halfway point) worked out at 9.4 µM in data set [1] and 5.7 µM in data set [2] (Homo sapiens, Neural stem cell, agent alone, hNSC). For the same molecule, the maximum astrocyte differentiation in data set [2] (percent of positive control, agent alone or in combination) turned out to be 60%. The “preference for the novel object (visits, time spent)” value with Male F344 rats [3] is given as “did not increase preference for the novel object; also recorded: did not demonstrate a significant effect on cognition”. In addition, in the data set with Male F344 rats [4] (0.5 mg/kg buspirone, 3.0 mg/kg melatonin or both, i.p.), the “latency to eat the food pellet (percent baseline)” value is listed as “did not significantly reduce the latency to eat the food pellet”. Besides, the “latency to eat the food pellet” value with Male F344 rats [4] (buspirone 0.5 and 5.0 mg/kg i.p.) is recorded as “did not significantly reduce the latency to eat the food pellet; also recorded: did not demonstrate a significant effect on novelty suppressed feeding”. Besides, in data set [5], the “BrdU positive cells per cubic mm dentate gyrus (percent change)” value is listed as “did not significantly change the number of BrdU positive cells”. For the same molecule, in data set [6], the mean body weight entry is “dose-dependent decrease in mean body weight”.
